Results as given in US7361769B2, “Heterocyclyls as selective melanin concentrating hormone receptor antagonists for the treatment of obesity and related disorders” (Schering Corporation, priority 2004, dated 2008).
Like-named read-outs stand apart in the source and are kept apart here.

Assays:
MCH receptor = target: T1, MCH receptor (Homo sapiens, UniProt Q99705); assay: MCH receptor binding assay ([125I]-MCH, SPA); settings: membranes from CHO cells expressing the MCH receptor
T1 construct: expressed in transfected cells; host or cells: CHO cells (membrane preparation)
Method: MCH Receptor Binding Assay:
Membranes from CHO cells expressing the MCH receptor were prepared by lysing cells with 5 mM HEPES for 15 min at 4 C. Cell lysates were centrifuged ([…], 15 min) and the pellet was re-suspended in 5 mM HEPES. For each 96-well plate (Microlite, Dynex Technologies), 1 mg of cell membranes were incubated with 10 mg of wheat germ agglutinin SPA beads (Amersham) for 5 min at 4 C in a volume of 10 ml of binding buffer (25 mM HEPES, 10 mM MGCl2, 10 mM NaCl, 5 mM MnCl2, 0.1% BSA). The membrane/bead mixture was centrifuged (1500×g, 3.5 min), the supernatant was aspirated, and the pellet was resuspended in 10 ml binding buffer. The centrifugation, aspiration and resuspension were then repeated. The membrane/bead mixture (100 μl) was then added to 96-well plates containing 50 μl of 500 pM [^125I]-MCH (NEN) and […] of the appropriate concentration of compound (4× the desired final concentration). Nonspecific binding was determined by including 1 μM MCH in the binding reaction. The binding reaction was incubated at room temperature for 2 h. Plates were then analyzed in a TOPCOUNT microplate scintillation counter (Packard). Data was analyzed and Ki values were determined using GraphPad Prism.

hERG channels = target: T2, hERG channels (Homo sapiens, UniProt Q12809); assay: Herg-Rb two phase screen (rubidium efflux); assay type: cell-based; settings: CHO cells expressing hERG, relative to complete block with 10 μM dofetilide; for herg-Rb 1.5 μg/mL (%): test article at 1.5 μg/ml; for herg-Rb 5 μg/mL (%): test article at 5 μg/ml
T2 construct: expressed in transfected cells
Method: Herg-Rb data (μg/mL) (%) was determined by the following two phase screen. The first phase is a cell-handling phase in which cells are loaded with rubidium, drugs are added and efflux initiated by KCl-depolarization. The second phase is measurement of rubidium content in cell supernatants that are collected at the end of the cell-handling phase. CHO cells expressing hERG in a stable manner are used for these studies. Cells are plated into 96-well dishes one day prior to study. After overnight culture, the normal tissue culture medium is removed and cells are loaded with rubidium for 3 hours in a HEPES-buffered physiological saline solution containing 5 mM rubidium chloride in place of potassium chloride. During the final 30 minutes of rubidium loading cells are pre-equilibrated with test articles at 1.5 μg/ml and 5 μg/ml. Cells are then washed with rubidium-free HEPES buffered physiological saline solution containing 5 mM KCl to remove all extracellular rubidium. The final step of the cell handling phase is to depolarize the cells in HEPES buffered physiological saline containing 50 mM KCl. This opens hERG channels and permits efflux of rubidium. Supernatants are collected after 5 minutes and rubidium content is measured using a flame atomic absorbance spectrometer with a robot for sampling from 96-well plates (ICR-8000, Aurora Biomed Inc., Vancouver, British Columbia). In cases where the channel is blocked the amount of rubidium efflux is reduced. Drug effects are calculated based on the difference between wells with no added compound and wells in which there is complete block of hERG channels with a well-known positive standard (10 μM dofetilide).

T2 sequence (Q12809 whole entry): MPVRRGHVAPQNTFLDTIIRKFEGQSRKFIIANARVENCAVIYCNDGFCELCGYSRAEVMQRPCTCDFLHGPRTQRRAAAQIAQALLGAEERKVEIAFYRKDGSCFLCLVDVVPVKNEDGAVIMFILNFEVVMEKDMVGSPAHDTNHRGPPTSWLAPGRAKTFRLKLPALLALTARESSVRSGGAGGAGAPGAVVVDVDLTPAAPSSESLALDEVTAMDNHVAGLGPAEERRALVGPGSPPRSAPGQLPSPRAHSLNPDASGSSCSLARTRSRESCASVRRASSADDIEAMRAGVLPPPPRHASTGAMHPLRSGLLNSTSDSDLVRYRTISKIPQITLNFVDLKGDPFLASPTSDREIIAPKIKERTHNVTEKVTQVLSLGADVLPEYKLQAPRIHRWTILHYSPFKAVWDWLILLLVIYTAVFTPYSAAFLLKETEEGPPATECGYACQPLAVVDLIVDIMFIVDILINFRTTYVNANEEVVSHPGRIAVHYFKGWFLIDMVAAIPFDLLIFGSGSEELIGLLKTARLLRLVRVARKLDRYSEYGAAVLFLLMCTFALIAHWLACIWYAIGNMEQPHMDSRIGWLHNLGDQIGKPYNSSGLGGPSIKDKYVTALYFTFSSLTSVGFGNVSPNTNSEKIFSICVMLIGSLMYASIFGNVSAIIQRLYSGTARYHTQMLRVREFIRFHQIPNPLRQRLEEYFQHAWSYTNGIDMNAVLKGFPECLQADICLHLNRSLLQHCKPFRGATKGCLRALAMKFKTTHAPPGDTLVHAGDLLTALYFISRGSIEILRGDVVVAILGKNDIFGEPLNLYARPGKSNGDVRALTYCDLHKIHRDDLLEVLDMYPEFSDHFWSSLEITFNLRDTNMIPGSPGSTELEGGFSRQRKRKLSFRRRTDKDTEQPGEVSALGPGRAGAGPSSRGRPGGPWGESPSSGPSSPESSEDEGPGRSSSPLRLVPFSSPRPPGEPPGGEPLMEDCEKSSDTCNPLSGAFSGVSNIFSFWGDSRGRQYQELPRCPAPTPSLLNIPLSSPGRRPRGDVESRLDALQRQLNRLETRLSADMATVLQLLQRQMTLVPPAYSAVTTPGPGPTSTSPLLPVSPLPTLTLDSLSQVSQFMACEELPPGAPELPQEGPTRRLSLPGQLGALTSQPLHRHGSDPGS
T1 sequence (Q99705 whole entry): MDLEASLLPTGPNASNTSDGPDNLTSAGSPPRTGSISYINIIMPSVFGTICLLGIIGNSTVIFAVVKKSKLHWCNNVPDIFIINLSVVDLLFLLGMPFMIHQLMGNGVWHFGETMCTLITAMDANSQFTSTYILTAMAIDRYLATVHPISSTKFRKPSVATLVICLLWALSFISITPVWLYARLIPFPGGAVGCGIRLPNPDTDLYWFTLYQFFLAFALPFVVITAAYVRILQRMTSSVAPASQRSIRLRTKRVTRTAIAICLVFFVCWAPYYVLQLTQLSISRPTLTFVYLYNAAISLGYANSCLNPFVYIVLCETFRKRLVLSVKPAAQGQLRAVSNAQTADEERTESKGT

Compound | Ki (MCH receptor; read-out: Class (Ki)) [nM] | Ki (MCH receptor; read-out: Ki) [nM] | herg-Rb 1.5 μg/mL (%) (hERG channels) | herg-Rb 5 μg/mL (%) (hERG channels)
CN(C)Cc1ccc(C2=CCC(N(CCN3CCCC3)C(=O)Nc3ccc(F)c(Cl)c3)CC2)s1 (centres unmarked) [Example 2] | > 100 |  |  | 
NCc1ncc([C@]23CC[C@@H](N(CCCN4CC[C@@H](O)C4)C(=O)Nc4ccc(F)c(C(F)(F)F)c4)[C@H]2C3)s1 [Example 21] | < 30 |  |  | 
CNCc1ccc(C2=CCC(N(CCN3CCCC3)C(=O)Nc3ccc(F)c(Cl)c3)CC2)s1 (centres unmarked) [Example 6] | < 30 |  |  | 
C[C@@H]1CN(CCCN(C(=O)Nc2ccc(F)c(C(F)(F)F)c2)[C@@H]2CC[C@]3(c4cnc(CN)s4)CC23)[C@@H](C)CN1 (some centres unmarked) [Example 16] | < 30 |  | −11 | −8
NCc1ncc([C@@]23C[C@H](N(CCCN4CC[C@H](O)C4)C(=O)Nc4ccc(F)c(C(F)(F)F)c4)C[C@@H]2C3)s1 [Example 14] | > 100 |  |  | 
CN(C)Cc1ncc(C2=CCC(N(CCN3CCCC3)C(=O)Nc3ccc(F)c(Cl)c3)CC2)s1 (centres unmarked) [Example 9] | > 100 |  |  | 
O=C(Nc1ccc(F)c(Cl)c1)N(CCN1CCCC1)C1CC=C(c2ccc(CN3CCCC3)s2)CC1 (centres unmarked) [Example 4] | > 100 |  | −1 | 20
O=C(Nc1ccc(F)c(Cl)c1)N(CCN1CCCC1)C1CC=C(c2ccc(CN3CCC3)s2)CC1 (centres unmarked) [Example 3] | > 100 |  | −1 | 15
NCc1ncc([C@]23CC[C@@H](N(CCCN4CC[C@@H](O)C4)C(=O)Nc4ccc(F)c(C(F)(F)F)c4)C2C3)s1 (some centres unmarked) [Example 18] | < 30 |  | −5 | −4
NCc1ncc([C@]23CC[C@@H](N(CCCN4CC5CC4CN5)C(=O)Nc4ccc(F)c(C(F)(F)F)c4)C2C3)s1 (some centres unmarked) [Example 17] | 30 to 100 |  | 0 | 14
NCc1cnc(C2=CCC(N(CCN3CCCC3)C(=O)Nc3ccc(F)c(Cl)c3)CC2)s1 (centres unmarked) [Example 11] | < 30 |  | 9 | 14
NCc1ncc([C@@]23CC[C@H](N(CCCN4CC[C@@H](O)C4)C(=O)Nc4ccc(F)c(C(F)(F)F)c4)[C@@H]2C3)s1 [Example 20] | > 100 |  |  | 

Further lines, with some results ahead:

Ki (MCH receptor; read-out: Class (Ki)) [nM] | Ki (MCH receptor; read-out: Ki) [nM] | Compound | herg-Rb 1.5 μg/mL (%) (hERG channels) | herg-Rb 5 μg/mL (%) (hERG channels)
30 to 100 |  | NCc1ncc([C@]23CC[C@@H](N(CCCN4CC[C@H](O)C4)C(=O)Nc4ccc(F)c(C(F)(F)F)c4)C2C3)s1 (some centres unmarked) [Example 15] | −4 | −4
< 30 |  | NCc1ncc(C2=CCC(N(CCN3CCCC3)C(=O)Nc3ccc(F)c(C(F)(F)F)c3)CC2)s1 (centres unmarked) [Example 10] | 9 | 26
30 to 100 |  | O=C(Nc1ccc(F)c(Cl)c1)N(CCN1CCCC1)C1CC=C(c2ccc(CN3CC[C@H](O)C3)s2)CC1 (some centres unmarked) [Example 5] | 0 | 6
< 30 | 8 | NCc1ccc(C2=CCC(N(CCN3CCCC3)C(=O)Nc3ccc(F)c(Cl)c3)CC2)s1 (centres unmarked) [Example 1] | 22 | 26
< 30 |  | C[C@@H]1CN(CCCN(C(=O)Nc2cc(Cl)nc(Cl)c2)[C@@H]2CC[C@]3(c4cnc(CN)s4)CC23)[C@@H](C)CN1 (some centres unmarked) [Example 19] | −10 | 3
30 to 100 |  | NCc1ncc([C@]23CC[C@@H](N(CCN4CC[C@H](O)C4)C(=O)Nc4ccc(F)c(C(F)(F)F)c4)[C@H]2C3)s1 [Example 13] | 13 | 8
> 100 |  | NCc1ncc([C@]23CC[C@@H](N(CCN4CCCC4)C(=O)Nc4ccc(F)c(C(F)(F)F)c4)[C@H]2C3)s1 [Example 12] | 13 | 16
< 30 |  | NCc1ncc(C2=CCC(N(CCN3CCCC3)C(=O)Nc3ccc(F)c(Cl)c3)CC2)s1 (centres unmarked) [Example 7] | −1 | 10
> 100 |  | CN(C)Cc1ncc(C2=CCC(N(CCN3CCCC3)C(=O)Nc3ccc(F)c(C(F)(F)F)c3)CC2)s1 (centres unmarked) [Example 8] |  | 
